In patent US11352350B2, “IRAK degraders and uses thereof” (Kymera Therapeutics, Inc., priority 2018, dated 2022) one finds IC50 and DC50 data, which are given here for 13 compounds.

pIC50: −log10 of the molar value. Read-outs that look alike come from different tables or passages of the source.

The subject of one assay is OCI-LY10. As to the kind of experiment: CTG Cell Viability Assay - OCI-LY10. It counts as cell-based, human. The following applies: Homo sapiens, OCI-Ly10, 96 h, OCI-LY10, 4 days; read-out: CTG Cell Viability Assay - OCI-LY10: Average external-IC50. In outline: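 OCI-LY10 cells exposed to 9-dose, 1:3 dilutions from 10 μM top (0.2% DMSO) for 4 days at 37° C, 5% CO2. Viability by CellTiter-Glo luminescence; IC50 from three-parameter logistic fit.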

The next assay deals with IRAK4 (Homo sapiens (Human), UniProt Q9NWZ3). In words: IRAK4 MSD degradation in OCI-LY10. It counts as cell-based. In outline:
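OCI-LY10 cells treated with 8-point 1:3 dilutions (top 1 to 10 μM final) for 4 to 24 h at 37° C. Lysate IRAK4 measured by MSD sandwich immunoassay (2H9 capture, Y279 detection, SULFO-TAG anti-rabbit). DC50 from three-parameter logistic fit.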

[1] abbreviates: OCI-LY10, 4 hrs, read-out: IRAK4 MSD degradation in OCI-LY10 at 4 hrs: DC50.
Where [2] appears, read: OCI-LY10, 24 hrs, read-out: IRAK4 MSD degradation in OCI-LY10 at 24 hrs: DC50.
The mark [3] stands for this setting: OCI-LY10, 4 hrs, MSD, read-out: IRAK4 MSD degradation in OCI-LY10 at 4 hrs: Average external-Abs DC50.
[4] abbreviates: OCI-LY10, 24 hrs, MSD, read-out: IRAK4 MSD degradation in OCI-LY10 at 24 hrs: Average external-Abs DC50.

Chain of IRAK4 (Q9NWZ3 whole entry): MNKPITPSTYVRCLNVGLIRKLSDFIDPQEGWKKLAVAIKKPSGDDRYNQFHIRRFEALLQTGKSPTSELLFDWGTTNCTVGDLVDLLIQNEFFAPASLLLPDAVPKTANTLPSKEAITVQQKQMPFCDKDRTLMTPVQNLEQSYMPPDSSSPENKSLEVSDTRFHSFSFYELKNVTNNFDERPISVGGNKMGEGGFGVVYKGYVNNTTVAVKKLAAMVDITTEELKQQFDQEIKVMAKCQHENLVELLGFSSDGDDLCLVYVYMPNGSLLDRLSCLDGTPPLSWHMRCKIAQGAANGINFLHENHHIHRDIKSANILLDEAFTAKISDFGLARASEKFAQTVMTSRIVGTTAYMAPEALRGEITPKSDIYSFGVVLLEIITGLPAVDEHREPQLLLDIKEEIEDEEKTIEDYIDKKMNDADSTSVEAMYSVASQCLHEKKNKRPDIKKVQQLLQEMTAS

The pIC50 is the IC50 on a negative log10 scale, so that one unit is a factor of ten. As usually defined, the DC50 is the concentration at which degradation of the target reaches its halfway point. With `O=C1CCC(N2C(=O)c3cccc(NCCOCCCN4CCN(c5ncc(-n6cc(NC(=O)c7cnn8ccc(N9C[C@H]%10C[C@@H]9CO%10)nc78)c(C(F)F)n6)cn5)CC4)c3C2=O)C(=O)N1` (stereo partly shown) [I-474], the pIC50 with OCI-LY10 was more than 7.30. The DC50 on IRAK4 (setting [1]) lay in the range of 100 to 1000 nM; on IRAK4 (setting [2]) it was 10 to 100 nM.

With `CN(CCc1ccc(CNc2cccc3c2C(=O)N(C2CCC(=O)N(C)C2=O)C3=O)cc1)C[C@H]1CC[C@H](n2cc(NC(=O)c3cnn4ccc(N5C[C@H]6CC5CO6)nc34)c(C(F)F)n2)CC1` (stereo partly shown) [I-452], in the assay on OCI-LY10, the negative logarithm of the IC50 (pIC50) was less than 6.00. In addition, the figures for the 50% degradation concentration (DC50) on IRAK4 (setting [1]) and on IRAK4 (setting [2]) were 100 to 1000 nM and more than 1000 nM, respectively.

`O=C1CCC(N2C(=O)c3cccc(CNC4CC5(CCN(C[C@H]6CC[C@H](n7cc(NC(=O)c8cnn9ccc(N%10C[C@H]%11C[C@@H]%10CO%11)nc89)c(C(F)F)n7)CC6)CC5)C4)c3C2=O)C(=O)N1` (stereo partly shown) [I-360]: the pIC50 with OCI-LY10 is less than 6.00. Besides, on IRAK4 (setting [3]), the DC50 is 10 to 100 nM.

On to `CN(C[C@H]1CC[C@H](n2cc(NC(=O)c3cnn4ccc(NCC5CC5)nc34)c(C(C)(C)O)n2)CC1)C1CCN(Cc2cccc3c2n(C)c(=O)n3C2CCC(=O)NC2=O)CC1` (stereo partly shown) [I-268], for which, in the assay on OCI-LY10, the pIC50 is less than 6.00. For the same compound, the DC50 at IRAK4 (setting [3]) is 100 to 1000 nM.

As for `Cn1c(=O)n(C2CCC(=O)NC2=O)c2cccc(CN3CCC(N(C)[C@H]4CC[C@H](Oc5ncnc6ccc(C#N)cc56)CC4)CC3)c21` (stereo partly shown) [I-270], the pIC50 with OCI-LY10 is less than 6.00. The DC50 at IRAK4 (setting [3]) and on IRAK4 (setting [4]) was more than 1000 nM each time.

For the compound `O=C1CCC(N2C(=O)c3cccc(NCCC4CCN(C[C@H]5CC[C@H](n6cc(NC(=O)c7cnn8ccc(N9CCOCC9)nc78)c(C(F)F)n6)CC5)CC4)c3C2=O)C(=O)N1` (stereo partly shown) [I-365], the pIC50 with OCI-LY10 was more than 7.30. For the same compound, at IRAK4 (setting [3]), the DC50 lay within 10 to 100 nM.

As for `C[C@@H]1CN(c2ccn3ncc(C(=O)Nc4cn([C@H]5CC[C@H](CN6CCC(OCCCc7cccc8c7n(C)c(=O)n8C7CCC(=O)NC7=O)CC6)CC5)nc4C(F)F)c3n2)C[C@H](C)O1` (stereo partly drawn) [I-275, N-[3-(difluoromethyl)-1-[4-[[4-[3-[1-(2,6-dioxo-3-piperidyl)-3-methyl-2-oxo-benzimidazol-4-yl]propoxy]-1-piperidyl]methyl]cyclohexyl]pyrazol-4-yl]-5-[(2R,6S)-2,6-dimethylmorpholin-4-yl] pyrazolo[1,5-a] pyrimidine-3-carboxamide], in the assay on OCI-LY10, the negative-log IC50 (pIC50) was less than 6.00. The 50% degradation concentration (DC50) on IRAK4 (setting [3]) was 10 to 100 nM.

Consider `Cc1c[nH]c2ncnc(N[C@H]3CC[C@H](N4CCN(C(=O)CCOCCCc5ccc6c(c5)n(C)c(=O)n6C5CCC(=O)NC5=O)CC4)CC3)c12` (stereo partly shown) [I-24], for which, in the assay with OCI-LY10, the pIC50 is less than 6.00. For the same compound, the DC50 on IRAK4 (setting [3]) and on IRAK4 (setting [4]) was more than 1000 nM in each case.

On to `CN(CCCN(C)C[C@H]1CC[C@H](n2cc(NC(=O)c3coc(-c4ccnc(NCC5CC5)c4)n3)c(C(F)F)n2)CC1)Cc1cccc2c1n(C)c(=O)n2C1CCC(=O)NC1=O` (stereo partly shown) [I-242], for which the pIC50 in the assay with OCI-LY10 was 6.00 to 6.30. Besides, the DC50 on IRAK4 (setting [3]) was less than 10 nM.

As to `Cn1c(=O)n(C2CCC(=O)NC2=O)c2cccc(CCCOCCOCCOCCOCC(=O)N3CCN([C@H]4CC[C@H](Nc5ncnc6[nH]cc(C7CCOCC7)c56)CC4)CC3)c21` (stereo partly shown) [I-53], in the assay on OCI-LY10, the negative-log IC50 (pIC50) was less than 6.00. Besides, the 50% degradation concentration (DC50) at IRAK4 (setting [3]) is 100 to 1000 nM; on IRAK4 (setting [4]), 10 to 100 nM.

With `Cn1c(=O)n(C2CCC(=O)NC2=O)c2cccc(CN3CCC(CN4CCC(n5cc(NC(=O)c6coc(-c7ccnc(NCC8CC8)c7)n6)c(C(F)F)n5)CC4)CC3)c21` (stereo not shown) [I-265], the negative-log IC50 (pIC50) in the assay on OCI-LY10 is more than 7.30. Besides, the DC50 on IRAK4 (setting [3]) was in the range of 10 to 100 nM.

For the compound `Cc1ncsc1-c1ccc(CNC(=O)[C@@H]2C[C@@H](O)CN2C(=O)[C@@H](NC(=O)COCCOCCOCCOCC(=O)N2CCN(C3CCC(Nc4ncnc5cc(CC#N)ccc45)CC3)CC2)C(C)(C)C)cc1` (stereo partly shown) [I-49], in the assay on OCI-LY10, the pIC50 was less than 6.00. Besides, on IRAK4 (setting [3]), the DC50 was more than 1000 nM.

`O=C1CCC(n2c3ccccc3c3c(CCCOC4CCN(C[C@H]5CC[C@H](n6cc(NC(=O)c7cnn8ccc(N9CCOCC9)nc78)c(C(F)F)n6)CC5)CC4)ccnc32)C(=O)N1` (stereo partly shown) [I-192]: in the assay on OCI-LY10, the pIC50 is less than 6.00. Moreover, on IRAK4 (setting [3]), the DC50 was in the range of 10 to 100 nM.
